Results taken from the OPERA property sets (Mansouri et al. 2018).

Details: for log10 biotransformation half-life (days) / log10 BCF: fish

## c1ccc(COc2ccccc2)cc1
  boiling point: 286 °C
  log10 vapour pressure (mmHg): -2.2
  melting point: 40 °C

## CCC(CC)COC(=O)CCCCC(=O)OCC(CC)CC
  melting point: -15 °C

## c1ccc2c3c(ccc2c1)-c1cccc2cccc-3c12
  log10 biodegradation half-life (days): 2.48
  melting point: 166 °C

## C=C[C@H]1C[N@@]2CC[C@H]1C[C@H]2[C@H](O)c1ccnc2ccc(O)cc12
  melting point: 202 °C

## CCCCCC[Si](Cl)(Cl)Cl
  boiling point: 190 °C

## CCCC(C)COC(C)=O (stereo not given)
  boiling point: 163 °C

## CCOO
  boiling point: 95 °C
  log10 Henry constant (atm·m³/mol): -5.53
  melting point: -100 °C

## CC(CC1CCCCC1)C1CCCCC1 (stereo not given)
  boiling point: 284 °C
  melting point: -22 °C

## N=C(N)N(c1ccccc1)c1ccccc1
  ready biodegradability: not readily biodegradable

## C#Cc1ccccc1
  boiling point: 143 °C
  log10 vapour pressure (mmHg): 0.314
  melting point: -44.8 °C

## O=C(O)c1cccc2c(Cl)cccc12
  melting point: 245 °C

## FC(F)=C(F)Br
  boiling point: -1 °C
  log10 vapour pressure (mmHg): 3.29

## Cc1cc2ccccc2nc1C
  boiling point: 263 °C
  melting point: 68.5 °C

## Cl.Cl.O=C1c2c(O)ccc(O)c2C(=O)c2c(NCCNCCO)ccc(NCCNCCO)c21
  melting point: 204 °C

## O=C1OC(=O)C(F)(F)C(F)(F)C1(F)F
  boiling point: 72 °C

## C[Si](C)(C)O[Si](C)(C)O[Si](C)(C)O[Si](C)(C)O[Si](C)(C)O[Si](C)(C)O[Si](C)(C)O[Si](C)(C)O[Si](C)(C)O[Si](C)(C)O[Si](C)(C)C
  boiling point: 323 °C

## Cc1ncccn1
  boiling point: 138 °C
  melting point: -4 °C

## CCN=Cc1ccccc1
  boiling point: 196 °C

## CCCCCN1C(=O)c2ccc([N+](=O)[O-])cc2C1=O
  ready biodegradability: readily biodegradable

## CCN(CC)C(=O)CSc1ccc(Cl)nn1
  melting point: 97 °C
  ready biodegradability: not readily biodegradable

## CCCCCCCCCCCCCCCCOC(=O)CCCCCCCCCCCCC
  ready biodegradability: readily biodegradable

## CCCCC(CC)CNC1CCCCC1 (stereo not given)
  boiling point: 270 °C

## CNc1ccc(C)cc1
  boiling point: 210 °C

## CCCCB(Cl)CCCC
  boiling point: 173 °C

## CC(C)(C)CBr
  boiling point: 106 °C

## C=C=O
  boiling point: -49.8 °C
  log10 vapour pressure (mmHg): 4.02
  melting point: -151 °C

## C=Cc1cccc([N+](=O)[O-])c1
  melting point: -10 °C
  ready biodegradability: not readily biodegradable

## CCN1CCNC(=O)C1=O
  melting point: 108 °C

## Clc1ccccc1-c1c(Cl)ccc(Cl)c1Cl
  log10 biotransformation half-life (days): 2.38

## O=[N+]([O-])c1ccc(CCl)cc1
  melting point: 71 °C
  ready biodegradability: not readily biodegradable

## CC(=O)OC(C)C#N (stereo not given)
  boiling point: 172 °C
  melting point: -75 °C

## C=CC(OCC)OCC
  boiling point: 124 °C

## CCCCCCCCCCCCCCN
  boiling point: 291 °C
  log10 vapour pressure (mmHg): -3.01
  melting point: 83.1 °C

## CC(C)NCC1CCc2cc(CO)c([N+](=O)[O-])cc2N1 (stereo not given)
  melting point: 148 °C

## CCCCCCCCCCCCCCCC(=O)[O-].[Na+]
  melting point: 286 °C

## CC(O)CC(F)(F)F (stereo not given)
  boiling point: 99.8 °C

## O=C(O)Cc1cccc(F)c1
  melting point: 43 °C

## Nc1cc(N)cc(C(=O)O)c1
  melting point: 228 °C

## FC(F)(F)c1cccc(Cl)c1
  boiling point: 138 °C
  melting point: -56 °C
  ready biodegradability: not readily biodegradable
  log10 BCF: 2.35
  log10 biotransformation half-life (days): 0.64

## CCCCC(C#N)(Cn1cncn1)c1ccc(Cl)cc1 (stereo not given)
  log10 Koc (L/kg): 2.7

## Cc1cc(C)c([N+](=O)[O-])c(C)c1
  boiling point: 255 °C
  melting point: 44 °C

## NNC(=O)c1ccc(N)cc1O
  melting point: 195 °C

## N#Cc1c(F)c(F)c(F)c(F)c1C#N
  melting point: 83 °C

## Clc1ccc(Cl)c(-c2c(Cl)cccc2Cl)c1
  log10 Koa: 8.45
  log10 vapour pressure (mmHg): -4.65

## CC(C)OC(=O)c1ccccc1O
  boiling point: 238 °C

## C[Si]1(C)O[Si](C)(C)O[Si](C)(C)O1
  boiling point: 134 °C
  log10 vapour pressure (mmHg): 0.548
  melting point: 64.5 °C

## C[C@]12CC[C@@H]3c4ccc(O)cc4CC[C@H]3[C@@H]1C[C@@H](O)[C@@H]2O
  melting point: 282 °C

## c1ccc2oncc2c1
  boiling point: 215 °C

## c1ccc(P(c2ccccc2)c2ccccc2)cc1
  melting point: 80 °C

## COC1=C[C@@H](C)[C@@H]2C[C@H]3OC(=O)C[C@H]4C(C)=C(OC)C(=O)[C@H]([C@@]2(C)C1=O)[C@@]34C
  melting point: 222 °C

## CCCCNC(=O)n1c(NC(=O)OC)nc2ccccc21
  log10 Henry constant (atm·m³/mol): -11.3
  log10 Koc (L/kg): 2.71
  log10 vapour pressure (mmHg): -8.43

## Cc1ccc2c(c1Cl)C(=O)c1ccccc1C2=O
  melting point: 170 °C

## CC1=C(C(=O)Nc2ccccc2)S(=O)(=O)CCO1
  log10 Koc (L/kg): 1.98
  log10 vapour pressure (mmHg): -7.38
  melting point: 120 °C

## CCNc1nc(NC(C)C(C)C)nc(SC)n1 (stereo not given)
  log10 vapour pressure (mmHg): -5.85
  melting point: 65 °C

## CCc1cc2c(s1)N(C)C(=O)CN=C2c1ccccc1Cl
  melting point: 119 °C

## CC(=O)OC1CCC2(C)C(CCC3(C)C2C(=O)C=C2C4CC(C)(C(=O)O)CCC4(C)CCC23C)C1(C)C (stereo not given)
  melting point: 323 °C

## Clc1cc2c(c(Cl)c1Cl)Oc1cc(Cl)c(Cl)c(Cl)c1O2
  log10 Koa: 11
  log10 vapour pressure (mmHg): -10.4
  melting point: 285 °C
  log10 BCF: 3.93
  log10 biotransformation half-life (days): 1.21

## Clc1cccc2cccc(Cl)c12
  melting point: 89 °C
  log10 BCF: 3.79

## C=Cc1ccc(C(C)C)cc1
  boiling point: 204 °C
  melting point: -44.7 °C

## Clc1cc(Cl)c(Cl)c(-c2cc(Cl)c(Cl)c(Cl)c2Cl)c1
  log10 Henry constant (atm·m³/mol): -5.89
  log10 biotransformation half-life (days): 2.51

## Cc1ccc[nH]c1=O
  boiling point: 289 °C
  melting point: 142 °C

## O=c1[nH]cc(Br)c(=O)[nH]1
  melting point: 310 °C

## Clc1ccc2ccc(Cl)nc2c1
  melting point: 120 °C

## Clc1ccc2ccccc2c1
  boiling point: 256 °C
  log10 Henry constant (atm·m³/mol): -3.49
  log10 Koa: 5.8
  log10 vapour pressure (mmHg): -1.91
  melting point: 61 °C
  log10 BCF: 3.63

## O=C(CCCN1CCC2(CC1)C(=O)NCN2c1ccccc1)c1ccc(F)cc1
  melting point: 142 °C

## O=C(O)C(O)C(=O)O
  melting point: 157 °C

## CCCCCCCCCCSSCCCCCCCCCC
  ready biodegradability: not readily biodegradable

## NS(=O)(=O)c1ccc(S(=O)(=O)CCO)cc1
  melting point: 165 °C

## c1ccc2cc(Nc3ccc4ccccc4c3)ccc2c1
  boiling point: 471 °C
  melting point: 172 °C

## O=c1cc(-c2ccccc2)oc2cc(O)ccc12
  melting point: 246 °C

## Brc1ccc(Oc2ccc(Br)c(Br)c2)cc1Br
  log10 BCF: 6.29

## O=[N+]([O-])c1cc[n+]([O-])cc1
  melting point: 160 °C

## Cc1ccccc1CBr
  boiling point: 217 °C
  melting point: 21 °C

## CC(=O)OCC(=O)c1ccccc1
  boiling point: 270 °C
  melting point: 49 °C

## COC(=O)CCc1ccccc1
  boiling point: 238 °C

## CCCCCCCCCCCCC(CCCCCCCCCCC)CCCCCCCCCCCC
  melting point: 9.7 °C

## Nc1ccc(S(=O)(=O)Nc2ccc(Cl)nn2)cc1
  melting point: 187 °C

## Cn1c(=O)c2c(ncn2CCOC(=O)c2cccnc2)n(C)c1=O
  melting point: 152 °C

## Cc1ccc(Cl)c(Cl)c1
  boiling point: 209 °C
  log10 vapour pressure (mmHg): -0.502
  melting point: -15.2 °C

## C#CCNC
  boiling point: 83 °C

## N#Cc1cccc(Br)c1
  boiling point: 225 °C

## CC(c1ccccc1)C(C)(C)O (stereo not given)
  boiling point: 197 °C
  melting point: 46 °C

## C=C1CC[C@H](O)C/C1=C/C=C1\CCC[C@]2(C)[C@@H]([C@H](C)/C=C/[C@H](C)C(C)C)CC[C@@H]12
  melting point: 116 °C

## S=C(Nc1cccc2ccccc12)Nc1cccc2ccccc12
  melting point: 208 °C

## O=C1CSC(=S)N1c1ccccc1
  melting point: 194 °C

## CC(C)=CC(=O)NS(=O)(=O)c1ccc(N)cc1
  melting point: 184 °C

## CCC(C)C(C)C(C)(C)C (stereo not given)
  boiling point: 157 °C

## Clc1ccc(-c2cc(Cl)c(Cl)c(Cl)c2Cl)cc1
  melting point: 98 °C
  log10 biotransformation half-life (days): 2.36

## CCN(Cc1ccncc1)C(=O)C(CO)c1ccccc1 (stereo not given)
  melting point: 96.5 °C

## Fc1ccccc1Cl
  boiling point: 138 °C
  melting point: -43 °C

## O=C/C(Cl)=C(/Cl)C(=O)O
  melting point: 127 °C

## CCOC(=O)C(C)C(C)=O (stereo not given)
  boiling point: 187 °C

## COC(=O)CCCCC(=O)O
  melting point: 9 °C

## CN=Cc1ccccc1
  boiling point: 185 °C

## c1ccc2c(c1)OCCOCCOCCOCCO2
  melting point: 79 °C

## c1cnc2ccc3ncccc3c2c1
  melting point: 177 °C

## CCC(=O)c1ccc(Cl)cc1
  melting point: 37.3 °C

## OC(c1ccccc1)(c1ccccc1)c1ccccc1
  boiling point: 380 °C
  melting point: 164 °C

## C1CCCNCC1
  boiling point: 138 °C
  log10 Henry constant (atm·m³/mol): -5.21
  log10 vapour pressure (mmHg): 0.908

## CSc1ccc(N)cc1
  boiling point: 272 °C

## Clc1cccc(-c2cccc(Cl)c2Cl)c1Cl
  log10 Henry constant (atm·m³/mol): -4
  log10 vapour pressure (mmHg): -4.13
  log10 BCF: 4.23
  log10 biotransformation half-life (days): 2

## O=C(O)CCCc1c[nH]c2ccccc12
  melting point: 124 °C

## CC(C)CCC(C)(C)O
  boiling point: 154 °C

## CC(=O)OC(C)(C)C
  boiling point: 97 °C
  log10 vapour pressure (mmHg): 1.67

## CSc1nc(NC(C)C)nc(NC(C)C)n1
  log10 Koc (L/kg): 2.85
  log10 vapour pressure (mmHg): -5.91
  melting point: 119 °C

## CCN1CCCC1
  boiling point: 104 °C

## CCOC(=O)c1cccc2ccccc12
  boiling point: 310 °C

## OCc1cccc2ccccc12
  boiling point: 304 °C
  log10 Koc (L/kg): 2.17
  melting point: 64 °C

## CCOCCOC(=O)C(C)Oc1ccc(Oc2ncc(C(F)(F)F)cc2Cl)cc1 (stereo not given)
  log10 vapour pressure (mmHg): -10.9
  melting point: 60 °C

## CCCOC(=O)CC(C)C
  boiling point: 156 °C
  log10 vapour pressure (mmHg): 0.413

## c1ccc(CN(Cc2ccccc2)Cc2ccccc2)cc1
  boiling point: 385 °C
  melting point: 91.5 °C

## CC(C)C1=CC2=C(CC1)[C@@]1(C)CCC[C@@](C)(C(=O)O)[C@@H]1CC2
  melting point: 164 °C
  log10 BCF: 1.4

## Cc1ccc2c(c1)CCC(C)C2 (stereo not given)
  boiling point: 240 °C
  melting point: 20 °C

## CCOC(=O)C(Br)Br
  boiling point: 194 °C

## Nc1ccc(Cl)cc1[N+](=O)[O-]
  melting point: 116 °C
  ready biodegradability: not readily biodegradable
  log10 BCF: 1.04
  log10 biotransformation half-life (days): -0.96

## Cc1ccc(OCC(=O)O)cc1
  melting point: 141 °C

## Cc1cnc(C(=O)O)c[n+]1[O-]
  melting point: 178 °C

## Cc1cc(O)c(C(C)(C)C)cc1C(C)CC(c1cc(C(C)(C)C)c(O)cc1C)c1cc(C(C)(C)C)c(O)cc1C (stereo not given)
  melting point: 186 °C

## Brc1ccc2ccccc2c1
  boiling point: 282 °C
  melting point: 59 °C

## Cc1ccc(CC(C)C)cc1
  boiling point: 196 °C

## CC(c1ccccc1)C1CCCCC1 (stereo not given)
  boiling point: 265 °C

## COc1cc2c(cc1O)CCN[C@@H]2C
  melting point: 222 °C
